Drawing on patent US8252832B2, “Kinesin inhibitors as cancer therapeutics” (Novartis AG, priority 2007, dated 2012), this text covers GI50 and IC50 for one compound.

The subject of experiment [1] is KB8.5. Description: CellTiter-Glo proliferation, 72 hours. As to conditions: Homo sapiens; Epidermoid, KB8.5, 72 hours. It is filed as cell-based. For orientation: ATP-based viability assays read luminescence as a measure of living cells.
In experiment [2] the target is T1, motor domain of human KSP (Eg 5, KNSL1) (Homo sapiens, UniProt P52732).
T1 construct: KSP motor protein (i.e., the KSP motor domain); made in house
T1 sequence (P52732 18-359 limits assumed): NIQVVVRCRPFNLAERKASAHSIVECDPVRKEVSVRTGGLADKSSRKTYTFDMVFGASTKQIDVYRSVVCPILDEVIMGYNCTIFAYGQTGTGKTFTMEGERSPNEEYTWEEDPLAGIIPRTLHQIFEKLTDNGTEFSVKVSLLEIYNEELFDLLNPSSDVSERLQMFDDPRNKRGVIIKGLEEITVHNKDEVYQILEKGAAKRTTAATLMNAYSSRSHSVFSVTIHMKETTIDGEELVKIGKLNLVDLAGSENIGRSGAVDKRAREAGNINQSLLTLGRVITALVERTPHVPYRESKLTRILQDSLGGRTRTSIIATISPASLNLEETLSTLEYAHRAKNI
Put plainly: Assay for determining KSP activity (microtubule/KSP ATPase, Biomol Green). Conditions: read-out: In vitro activity (IC-50 - nm). It is filed as biochemical. As to the method: Purified microtubules obtained from bovine brain were purchased from Cytoskeleton Inc. (Denver, Colo., USA). The motor domain of human KSP (Eg 5, KNSL1) was cloned, expressed, and purified to greater than 95% homogeneity. Biomol Green™ was purchased from Affinity Research Products Ltd. (Matford Court, Exeter, Devon, United Kingdom). Microtubules and KSP motor protein (i.e., the KSP motor domain) were diluted in assay buffer (20 mM Tris-HCl (pH 7.5), 1 mM MgCl2, 10 mM DTT and 0.25 mg/mL BSA) to a final concentration of 35 μg/mL microtubules and 45 nM KSP. The microtubule/KSP mixture was then pre-incubated at 37° C. for 10 min to promote the binding of KSP to microtubules.
To each well of the testing plate (384-well plate) containing 1.25 μL of inhibitor or test compound in DMSO (or DMSO only, in the case of controls) were added 25 μL of ATP solution (ATP diluted to a concentration of 300 μM in assay buffer) and 25 μL of the above-described microtubule/KSP solution. The plates were incubated at RT for 1 hour. Following incubation, 65 μL of Biomol Green™ (a malachite green-based dye that detects the release of inorganic phosphate) was added to each well. The plates were incubated for an additional 5-10 minutes then the absorbance at 630 nm was determined using a Victor II plate reader. The amount of absorbance at 630 nm corresponded to the amount of KSP activity in the samples. The IC50 of each inhibitor or test compound was then determined based on the decrease in absorbance at 630 nm at each concentration, via nonlinear regression using either XLFit for Excel or Prism data analysis software by GraphPad Software Inc.

Experiment [3] relates to U937. Description: CellTiter-Glo proliferation, 72 hours. Conditions: Homo sapiens, U-937; Leukemia, U937, 72 hours. It is filed as cell-based. The text has this: (§1) Cell lines used were as follows: HCT-116 (National Cancer Institute's DCTF Tumor Repository, catalog #NCI-502568, Rockville, Md.), HCT-15 (National Cancer Institute's DCTF Tumor Repository, catalog#NCI-502711, Rockville, Md. available from American Type Tissue Collection, catalog #CLL-225), KB-3-1 (available from DSMZ, Deutsche Sammlung von Mikroorganismen und Zellkulturen GmbH (German Collection of Microorganisms and Cell Cultures—catalog number ACC 158), KB-V1 (available from DSMZ—catalog number ACC 149), AGS (available from American Type Culture Collection, Manassas Va., catalog number CRL-1739™), N87 (available from American Type Culture Collection, Manassas Va., catalog number CRL-5822), Hel92.1.7 (available from American Type Culture Collection, Manassas Va., catalog number TIB 180), K562 (available from American Type Culture Collection, Manassas Va., catalog number CRL-243™), MV4; 11 (American Tissue Culture Collection, Manassas Va., catalog number CRL-9591) and U937 (available from American Type Culture Collection, Manassas Va., catalog number CRL-1593.2).
(§2) Cells were plated in 96-well plates at densities of about 500 cells per well of a 96-well plate and allowed to grow for 24 hours. The cells were then treated with various concentrations of compounds for 72 hours. Then, 100 μl of CellTiter-Glo® reagent was added (Promega Corporation). CellTiter-Glo® is used in a homogeneous method of determining the number of viable cells using the single CellTiter-Glo® reagent to detect ATP (U.S. Pat. Nos. 6,602,677 and 7,241,584) (see Promega product catalog #G7570). Following the addition of the CellTiter-Glo® reagent, the cells were incubated in the dark for 30 minutes. The amount of luminescence was determined for each well using a Wallac Trilux plate reader, which correlates with the number of cells per well. The number of viable cells in the wells that receive only DMSO (0.5%) served as an indication of 0% inhibition, while wells without cells served as 100% inhibition of cell growth. […] This broad activity is consistent with a compound that is a mitotic inhibitor.

Experiment [4] relates to HCT-15. Put plainly: CellTiter-Glo proliferation, 72 hours. It is filed as cell-based. As to conditions: Homo sapiens; Colon, HCT-15, 72 hours.
From the text: as §1, §2

The test system of experiment [5] is KB3.1. Description: CellTiter-Glo proliferation, 72 hours. The experiment is classed as cell-based. As to conditions: Homo sapiens, KB 3-1; Epidermoid, KB3.1, 72 hours.
From the text: as §1, §2

The test system of experiment [6] is HCT-116. Put plainly: CellTiter-Glo proliferation, 72 hours. The experiment is classed as cell-based. Conditions: Homo sapiens; Colon, HCT-116, 72 hours.
From the text: as §1, §2

Experiment [7] relates to KBV1. Put plainly: CellTiter-Glo proliferation, 72 hours. It is filed as cell-based. Conditions: Homo sapiens, KB-V1; Epidermoid, KBV1, 72 hours.
From the text: as §1, §2

Experiment [8] concerns N87. Put plainly: CellTiter-Glo proliferation, 72 hours. The experiment is classed as cell-based. Conditions: Gastric, N87, 72 hours.
From the text: as §1, §2

Experiment [9] has as its system Hel92.1.7. Put plainly: CellTiter-Glo proliferation, 72 hours. Conditions: Homo sapiens, HEL 92.1.7; Leukemia, Hel92.1.7, 72 hours. It is filed as cell-based.
From the text: as §1, §2

Experiment [10] relates to K562. Put plainly: CellTiter-Glo proliferation, 72 hours. It is filed as cell-based. Conditions: Homo sapiens; Leukemia, K562, 72 hours.
From the text: as §1, §2

Experiment [11] relates to MV4-11. Put plainly: CellTiter-Glo proliferation, 72 hours. The experiment is classed as cell-based. Conditions: Homo sapiens; Leukemia, MV4-11, 72 hours.
From the text: as §1, §2

The subject of experiment [12] is AGS. Description: CellTiter-Glo proliferation, 72 hours. As to conditions: Homo sapiens, Gastric. The experiment is classed as cell-based.
From the text: as §1, §2

The structures appear in SMILES notation.

`CC(C)(C)[C@H](c1nc(-c2cc(F)ccc2F)cn1Cc1ccccc1)N(CC[C@H](N)CF)C(=O)CO` [Compound IIa]: the concentration for 50% growth inhibition (GI50) (as a rule, the concentration at which growth is held to half of that of the control) in experiment [1] came to 0.5 nM; in experiment [3] it was 0.1 nM; in [4] it was 0.3 nM; in experiment [5] it was 0.6 nM; in experiment [6] it was 0.1 nM; in experiment [7], 6.5 nM. In addition, the GI50 came out at 1 nM in experiment [8]; 0.5 nM in experiment [9]; 0.1 nM in [10]; 0.2 nM in [11]; 0.2 nM in [12]. In addition, the IC50 in experiment [2] is 0.8 nM.
